Measurements published in US5195966A, “Treatment of mastitis and applicator therefor” (Diversey Limited, priority 1990, dated 1993).

Columns and labels:
[1] = cited from earlier work
[2] = in vivo
Text: The completed work, which takes the form of a series of individual studies, monitors the level of residues in milk from cows that were subjected to six infusions of a single normal strength "Clorpactin" dose (0.5 grams in 40 mls of physiological saline), both during infusion and for a series of milkings after the treatment was complete.
Analysis of the milk samples from each cow was by ion-pair reverse-phase chromatography. Calculation of the "Clorpactin" residues was, in the case of Study 01, by the peak height method, as the milk used for the standards was obtained from a different source from the cows under test (consequent detection limit 7 ppm). In studies, 02, 03 and 04 as the standards were made in milk obtained from the cow under test a few days prior to treatment, the peak area method was used (detection limit 1 ppm). […] Treatments:
Two mid-lactation cows (Fresian) were selected for the trial, with each being subjected to one course of treatment with the ""Clorpactin WCS-90". Treatments comprised six infusions, following six successive milkings, of "Clorpactin" at a single normal strength dose (0.5 gms per 40 mls of physiological saline)
Two healthy mid-lactation cows (Fresian) were selected for this trial, with again each cow being subjected to a single course of treatment with "Clorpactin WCS-90" Study 02 differed from Study 01 in that a sample of the milk from the quarters under test was removed from the cow a few days prior to treatment, to enable accurate standards to be prepared.
Three healthy mid-lactation cows (Fresian) were selected for the trial, with each being subjected to one course of treatment with the "Clorpactin WCS-90", to each of the four quarters of the animals.
The milk from all four quarters was monitored for residues during and after treatment, with the standards being made up in milk obtained from the quarters a few days before the trial.
Two mastitic cows, used in the efficacy study, were monitored for residues in the milk from a point where the milk appeared to be normal. It was not possible to evaluate the severely mastitic milk as no standards may be prepared to evaluate milk that is constantly changing in composition. The standards used in this case were made in milk obtained some 4 days after the last sample was taken.
Means cited at the foot of the Table are calculated taking the <7 ppm and <1 ppm results as 7 and 1, respectively.

[3] = test system: E. coli; assay: Minimum inhibitory concentration against E. coli; type: cell-based; conditions: E. coli (intestinal flora)
[4] = test system: St. faecalis; assay: Minimum inhibitory concentration against St. faecalis; type: cell-based; conditions: St. faecalis (intestinal flora)
[5] = test system: E. coli; assay: Clinical cure of mastitis, E. coli; type: in vivo, dairy cattle; conditions: of 4 cases; 40 ml 1.25% w/v, 6 infusions at successive milkings
Text: (§1) Efficacy studies used half herds on a positive control and half herds on the experimental treatment. The protocol agreed was that herds were randomly split into two halves by number. Odd numbered cows received experimental treatment and even numbered cows received the positive control. Any animal sufficiently badly affected (i.e. systematically affected) should be the subject of a visit from a veterinary surgeon and was not included in the trial on either side.
(§2) Milk samples of each infected quarter were sent to the MMB Laboratories for cell count and bacterial identification as follows:.
(§3) A clinical cure is defined as the udder returning to normal function.
(§4) 40 ml of 1.25% w/v solution of sodium oxychlorosene infused 6 times at 6 milkings.
(§5) 1 full tube of 100 mg procaine penicillin/100 mg dihydro-streptomycin sulphate infused 6 times at 6 milkings. Five measurements can be made from the figures available:
(§6) Odd numbered animals. Sodium oxychlorosene. 40 ml 1.25% w/v. 6 times at successive milkings.
(§7) Procaine penicillin/Dihydrostreptomycin sulphate. 6 times at 6 milkings.

[6] = test system: Str. agalactiae; assay: Clinical cure of mastitis, Str. agalactiae; type: in vivo, dairy cattle; conditions: 40 ml 1.25% w/v, 6 infusions at successive milkings
Text: as §1, §2, §3, §4, §5, §6, §7

[7] = test system: dairy cattle; conditions: bovine, in vivo
[8] = test system: rats; assay: LD50 of Clorpactin WCS-90 in a milk vehicle by the oral route; type: in vivo; conditions: sterilized, γ-irradiated (2.5 megarads)
[9] = test system: Str. uberis; assay: Clinical cure of mastitis, Str. uberis; type: in vivo, dairy cattle; conditions: 40 ml 1.25% w/v, 6 infusions at successive milkings
Text: as §1, §2, §3, §4, §5, §6, §7

[10] = test system: somatic cell counts in milk; assay: Mean somatic cell counts in milk during and after completed treatments; type: in vivo, dairy cattle
Text: as §2
Somatic cell counts in milk from individual quarters is an indication of the state of health of that quarter. The higher the cell count, the greater is the degree of infection or the irritant effect in the udder.
The mean cell counts for all experimental milk samples submitted to the MMB are shown below. It is not always possible to obtain a cell count if the milk is obviously mastitic or if the sample deteriorates in transit. One problem with sodium oxychlorosene samples is that, due to lack of inhibitory effects, samples in transit may deteriorate quite rapidly. Samples containing antibiotic inhibitors are generally better protected from microbiological deterioration in transit. Some samples, when specifically needed for cell counts and not for causative organism assay, have been protected by the addition of formalin. This was carried out, for instance, when the irritancy studies were carried out.
(§8) (The variations in n, the number of determinations from which the mean cell count is calculated, are due to various factors, such as samples leaking in transit, faster decomposition of samples in hot weather, especially where no inhibitor substances are present (i.e. sodium oxychlorosene). Mean number of infusions to effect a clinical cure where a clinical cure is affected after up to 6 infusions.

[11] = test system: Staph. coagulase positive; assay: Clinical cure of mastitis, Staph. coagulase positive; type: in vivo, dairy cattle; conditions: 40 ml 1.25% w/v, 6 infusions at successive milkings
Text: as §1, §2, §3, §4, §5, §6, §7

[12] = test system: Str. dysgalactiae; assay: Clinical cure of mastitis, Str. dysgalactiae; type: in vivo, dairy cattle; conditions: 40 ml 1.25% w/v, 6 infusions at successive milkings
Text: as §1, §2, §3, §4, §5, §6, §7

[13] = test system: mastitis; assay: Clinical efficacy in mastitis, overall and number of infusions to effect a clinical cure; type: in vivo, dairy cattle
Text: as §1, §2, §3, §4, §5, §8

[14] = test system: starters Streptococcus thermophilus and Lactobacillus bulgarius; assay: Inhibitory effect on yoghurt starter cultures (lactic acid by titratable acidity); type: cell-based
Protocol: The inhibitory effect of "Clorpactin" on starter cultures was also investigated: Raw whole milk was pasteurized and spiked with various concentrations of freshly prepared "Clorpactin". These samples were inoculated with the starters Streptococcus thermophilus and Lactobacillus bulgarius contained in natural yoghurt, incubated at 37°/5 hours and the percent lactic acid determined by titratable acidity (BSI, 1741:1963).

[15] = bovine, in vivo
Protocol: An experimental study was conducted to determine if any absorption occurs between quarters during a course of treatment with "Clorpactin WCS-90".
The method used was to infuse two of the quarters of a healthy cow with a double normal strength course of treatment and to monitor each of the four quarters for "Clorpactin" residues, both during and after the trial. This with the assumption that if the material were being transferred between quarters by any mechanism it would be detected in the untreated quarters.
Analysis of the milk samples from each quarter was by ion-pair reverse-phase chromatography.
Calculation of the "Clorpactin" residues was by peak area with the milk used for the standards being prepared from milk obtained several days before treatment.
Two of the quarters were each infused with a double normal dose of "Clorpactin WCS-90" (2×0.5 g in 40 mls of physiological saline) on six consecutive occasions following 6 milkings.
The milk from all four quarters was monitored for residues both during and after the trial to determine if any transfer to untreated quarters had occurred.
The first infusion occurred after Milking No. 1, with the consequence that Milking 1 represents the background.

Substance: (mon)oxychlorosene
- hydrolysis in water ([1]; after dissolving): hydrolyses rapidly
- dissolution in water [1]: dissolves slowly in water

Substance: sodium oxychlorosene
- 10× mean residue level after withdrawal period [2]: 31 ppm
- levels detected after treatment is complete [2]: quickly drops off to background
- milking by which background has been achieved [2]: ≤ 8
- withdrawal after treatment supported by the data [2]: one milking withdrawal
- minimum inhibitory concentration [3]: approximately 2000 ppm
- minimum inhibitory concentration [4]: approximately 2000 ppm
- Clinical Cures [5]: 3
- % Clinical Cures ([6]; 51 cases): 82%
- Clinical Cures ([6]; of 51 cases): 41
- adverse effects [7]: No adverse effects were found
- LD50 [8]: > 5000 mg/kg
- % Clinical Cures ([9]; 25 cases): 76%
- Clinical Cures ([9]; of 25 cases): 19
- Mean Cell Counts ([10]; day 0): 6870
- Mean Cell Counts ([10]; day 1): 6092
- Mean Cell Counts ([10]; day 2): 4912
- Mean Cell Counts ([10]; day 3): 4845
- Mean Cell Counts ([10]; day 4): 3468
- Mean Cell Counts ([10]; day 5): 2018
- Mean Cell Counts ([10]; day 12): 1576
- Mean Cell Counts ([10]; day 19): 965
- % Clinical Cures ([11]; 72 cases): 90%
- Clinical Cures ([11]; of 72 cases): 65
- % Clinical Cures ([12]; 10 cases): 70%
- Clinical Cures ([12]; of 10 cases): 7
- clinical cure versus the conventional antibiotic ([13]; 1.25% w/v, 95% confidence level): superior to the conventional antibiotic
- significance (p) of mean number of infusions, Experimental vs Positive control ([13]; 72 degrees of freedom, t = 3.098): < 0.01
- Mean number of infusions to effect a clinical cure ([13]; clinical cure effected after up to 6 infusions, n = 70 (sodium oxychlorosene 1.25% w/v, On1 1.61), n = 30 (antibiotic, On1 1.10)): 4.11
- percent lactic acid ([14]; Clorpactin-spiked milk up to 0.01% (100 ppm), 37°/5 hours, control also about 0.9%): about 0.9 % lactic acid
- effect on yoghurt starter culture activity ([14]; conclusion): no adverse affect on yoghurt starter culture activity
- effect on lactic acid production ([14]; levels of up to 0.01% (100 ppm) in pasteurized milk, 37°/5 hours): no effect on lactic acid production
- Clorpactin in the untreated quarters [15]: No evidence of any "Clorpactin" was detected in the untreated quarters
- milking number by which level is clear [15]: ≤ 8
- transference to the untreated quarters [15]: no mechanism of transference
